In patent US20090005361A1, “Combination of Organic Compounds” (priority 2006, published 2009):

How the values were obtained:
Type in all cases: biochemical
[1] = tested on: mouse renin; assay: renin inhibition, species specificity (mouse renin); conditions: stated in words, compared with human renin
[2] = target: T1, dog renin (Canis lupus familiaris, UniProt Q6DYE7); assay: renin inhibition, species specificity (dog renin); conditions: stated in words, compared with human renin
T1 sequence (Q6DYE7 66-403): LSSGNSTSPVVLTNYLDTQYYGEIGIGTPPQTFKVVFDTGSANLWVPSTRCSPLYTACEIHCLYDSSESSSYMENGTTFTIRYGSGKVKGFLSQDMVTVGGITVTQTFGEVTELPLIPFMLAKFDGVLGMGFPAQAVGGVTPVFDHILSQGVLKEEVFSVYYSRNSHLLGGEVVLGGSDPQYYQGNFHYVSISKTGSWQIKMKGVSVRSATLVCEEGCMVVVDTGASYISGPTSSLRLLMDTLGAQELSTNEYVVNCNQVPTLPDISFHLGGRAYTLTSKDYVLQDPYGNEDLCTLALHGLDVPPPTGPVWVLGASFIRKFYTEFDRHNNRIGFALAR

[3] = target: T2, rat renin (Rattus norvegicus, UniProt P08424); assay: renin inhibition, species specificity (rat renin); conditions: relative potency loss against rat renin
T2 sequence (P08424 65-402): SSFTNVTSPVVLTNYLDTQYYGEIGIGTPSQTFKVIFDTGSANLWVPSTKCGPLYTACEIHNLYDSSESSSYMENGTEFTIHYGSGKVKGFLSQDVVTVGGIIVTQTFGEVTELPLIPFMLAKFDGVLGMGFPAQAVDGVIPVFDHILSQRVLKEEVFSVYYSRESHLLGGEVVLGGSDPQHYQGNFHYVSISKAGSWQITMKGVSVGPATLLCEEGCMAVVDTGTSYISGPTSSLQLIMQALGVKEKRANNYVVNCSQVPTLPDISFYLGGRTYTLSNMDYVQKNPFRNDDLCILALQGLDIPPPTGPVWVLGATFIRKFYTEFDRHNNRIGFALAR

**Q.** COCCCOc1cc(C[C@@H](C[C@H](N)[C@@H](O)C[C@H](C(=O)NCC(C)(C)C(N)=O)C(C)C)C(C)C)ccc1OC [aliskiren, 2(S),4(S),5(S),7(S)-N-(3-amino-2,2-dimethyl-3-oxopropyl)-2,7-di(1-methylethyl)-4-hydroxy-5-amino-8-[4-methoxy-3-(3-methoxy-propoxy)phenyl]-octanamide] was tested. Which “potency against mouse renin” value [1] did it give?
**A.** Its value is “reasonable potency”.

**Q.** What about the “potency against dog renin” value [2] of the same molecule?
**A.** Its value is “reasonable potency”.

**Q.** What about the “weaker as a rat renin inhibitor” value [3] of the same molecule?
**A.** Its value is 1-2 orders of magnitude.
